Measurements as given in DBAASP.
In brackets after ≈: the same amount, converted by molar mass. Each block holds one compound with its values, some of them ahead of it.

How the values were obtained:
Test in all cases: ≥ marks a high value that may be exact or a test limit, other limits are often not marked, values filed in µg/mL are converted to µM
[1] = test system: Acinetobacter baumannii ATCC 19606
[2] = test system: Enterobacter cloacae ATCC 49141
[3] = test system: Enterococcus faecalis ATCC 19433
[4] = test system: Escherichia coli ATCC 25922
Escherichia coli D21 = test system: Escherichia coli D21
[5] = test system: Pseudomonas aeruginosa ATCC 27853
[6] = test system: Staphylococcus aureus II ATCC 6538P
Alternaria alternata = test system: Alternaria alternata
Botrytis cinerea = test system: Botrytis cinerea
Cladosporium herbarum = test system: Cladosporium herbarum
[7] = test system: Clavibacter michiganensis subsp. michiganensis DSM 46294
[8] = test system: Pectobacterium carotovorum subsp. carotovorum DSM 30168
[9] = test system: Pseudomonas corrugata DSM 7228
[10] = test system: Pseudomonas syringae pv. syringae DSM 10604
[11] = test system: Pseudomonas syringae pv. tomato DC3000
[12] = test system: Xanthomonas vesicatoria DSM 50861
[13] = test system: Bacillus subtilis ATCC 11060
[14] = test system: Enterococcus faecalis ATCC 29212
Escherichia coli 078 = test system: Escherichia coli 078
Escherichia coli 44102 = test system: Escherichia coli 44102
Escherichia coli ER2566 = test system: Escherichia coli ER2566
Escherichia coli K88 = test system: Escherichia coli K88
Escherichia coli UB1005 = test system: Escherichia coli UB1005
[15] = test system: Pseudomonas aeruginosa ATCC 10419
[16] = test system: Pseudomonas aeruginosa ATCC 21625
[17] = test system: Pseudomonas aeruginosa ATCC 21630
[18] = test system: Salmonella enterica subsp. enterica serovar Pullorum C79-13
[19] = test system: Salmonella enterica subsp. enterica serovar Typhimurium ATCC 14028
[20] = test system: Salmonella enterica subsp. enterica serovar Typhimurium C77-31
[21] = test system: Staphylococcus aureus ATCC 25923
[22] = test system: Staphylococcus epidermidis ATCC 12228
[23] = test system: Corynebacterium glutamicum ATCC 13032
Escherichia coli HB101 = test system: Escherichia coli HB101
[24] = test system: Staphylococcus aureus ATCC 9144

- MIC [1]: > 100 µM
- MIC [2]: ≥ 100 µM
- MIC [3]: ≥ 100 µM
- MIC [4]: > 100 µM
- MIC (Escherichia coli D21): ≥ 100 µM
- MIC [5]: 100 µM (≈ 182 µg/mL)
- MIC [6]: ≥ 100 µM
SMILES: CC(C)C[C@H](NC(=O)[C@H](Cc1cnc[nH]1)NC(=O)[C@H](Cc1cnc[nH]1)NC(=O)[C@H](CC(C)C)NC(=O)[C@H](CC(C)C)NC(=O)[C@H](Cc1cnc[nH]1)NC(=O)[C@H](Cc1cnc[nH]1)NC(=O)[C@H](CC(C)C)NC(=O)[C@H](CC(C)C)NC(=O)[C@H](Cc1cnc[nH]1)NC(=O)[C@H](Cc1cnc[nH]1)NC(=O)[C@H](CC(C)C)NC(=O)[C@H](C)NC(=O)[C@H](CC(=O)O)NC(=O)[C@@H](N)CC(=O)O)C(=O)O [DDALHHLLHHLLHHL]

- MIC (Alternaria alternata): ≥ 73.4 µM
- MIC (Botrytis cinerea): ≥ 73.4 µM
- MIC (Cladosporium herbarum): 14.7 µM (≈ 20 µg/mL)
- MIC [7]: 29.4 µM (≈ 40 µg/mL)
- MIC [8]: 29.4 µM (≈ 40 µg/mL)
- MIC [9]: 7.34 µM (≈ 9.99 µg/mL)
- MIC [10]: 29.4 µM (≈ 40 µg/mL)
- MIC [11]: 3.67 µM (≈ 5 µg/mL)
- MIC [12]: 29.4 µM (≈ 40 µg/mL)
SMILES: CC(C)C[C@H](NC(=O)[C@H](CCCCN)NC(=O)[C@H](Cc1cnc[nH]1)NC(=O)[C@H](CCCCN)NC(=O)[C@H](CC(C)C)NC(=O)[C@H](C)NC(=O)[C@H](CCCCN)NC(=O)[C@H](C)NC(=O)[C@H](CC(C)C)NC(=O)[C@H](C)NC(=O)[C@H](CCCN=C(N)N)NC(=O)[C@@H](N)CC(C)C)C(N)=O [LRALAKALKHKL]

- MIC [13]: 8 µM (≈ 18.4 µg/mL)
- MIC [14]: 4 µM (≈ 9.2 µg/mL)
- MIC (Escherichia coli 078): 4 µM (≈ 9.2 µg/mL)
- MIC (Escherichia coli 44102): 8 µM (≈ 18.4 µg/mL)
- MIC (Escherichia coli ER2566): 8 µM (≈ 18.4 µg/mL)
- MIC (Escherichia coli K88): 4 µM (≈ 9.2 µg/mL)
- MIC (Escherichia coli UB1005): 4 µM (≈ 9.2 µg/mL)
- MIC [15]: 16 µM (≈ 36.8 µg/mL)
- MIC [16]: ≥ 32 µM
- MIC [17]: 16 µM (≈ 36.8 µg/mL)
- MIC [5]: > 128 µM
- MIC [18]: ≥ 128 µM
- MIC [19]: 8 µM (≈ 18.4 µg/mL)
- MIC [20]: 8 µM
- MIC [21]: 32 µM (≈ 73.6 µg/mL)
- MIC [22]: 8 µM (≈ 18.4 µg/mL)
SMILES: CC[C@H](C)[C@H](NC(=O)[C@H](CCCCN)NC(=O)[C@H](CCCCN)NC(=O)[C@H](CC(C)C)NC(=O)[C@H](CCCN=C(N)N)NC(=O)[C@H](Cc1c[nH]c2ccccc12)NC(=O)[C@H](CCCN=C(N)N)NC(=O)[C@@H](NC(=O)[C@H](CCCCN)NC(=O)[C@H](Cc1c[nH]c2ccccc12)NC(=O)[C@H](CCCN=C(N)N)NC(=O)[C@H](CC(C)C)NC(=O)[C@H](CCCN=C(N)N)NC(=O)[C@H](CCCN=C(N)N)NC(=O)[C@H](Cc1ccccc1)NC(=O)[C@@H](N)CCCN=C(N)N)[C@@H](C)O)C(N)=O [RFRRLRWKTRWRLKKI]

- MIC [23]: 3.1 µM (≈ 7.75 µg/mL)
- MIC [4]: 35.4 µM (≈ 88.4 µg/mL)
- MIC (Escherichia coli HB101): 12.5 µM (≈ 31.2 µg/mL)
- MIC [5]: 100 µM (≈ 250 µg/mL)
- MIC [24]: ≥ 100 µM
SMILES: CC[C@H](C)[C@H](NC(=O)[C@@H]1CCCN1C(=O)[C@H](CCCCN)NC(=O)[C@@H]1CCCN1C(=O)[C@H](CCCN=C(N)N)NC(=O)CNC(=O)[C@@H]1CCCN1C(=O)[C@H](Cc1ccccc1)NC(=O)[C@@H]1CCCN1C(=O)[C@H](CCCN=C(N)N)NC(=O)[C@@H]1CCCN1C(=O)[C@H](CCCN=C(N)N)NC(=O)CNC(=O)[C@@H]1CCCN1C(=O)[C@H](CO)NC(=O)[C@@H]1CCCN1C(=O)[C@@H](N)Cc1c[nH]c2ccccc12)C(=O)N[C@@H](Cc1ccccc1)C(=O)N[C@@H](CCCN=C(N)N)C(=O)N1CCC[C@H]1C(=O)N[C@@H](CCCN=C(N)N)C(=O)O [WPSPGRPRPFPGRPKPIFRPR]
